Test results taken from US20250136568A1, “FUSED HETEROCYCLIC COMPOUNDS AS PI3KALPHA INHIBITORS” (Nanjing Zenshine Pharmaceuticals Co., Ltd., priority 2021, published 2025).
Like-named read-outs stand apart in the source and are kept apart here.

What was measured:
Format in all cases: cell-based
[1] = test system: PI3Kα H1047R mutation cell line MDA-MB-453; assay: Cell Proliferation IC50 Assay (CellTiter-Glo), MDA-MB-453; conditions: MDA-MB-453 (H1047R), 72 hours, CellTiter-Glo, read-out: IC50 (μM) MDA-MB-453
Excerpt: PI3Kα H1047R mutation cell line T-47D and MDA-MB-453, E545K mutation cell line MDA-MB-361 and PI3Kα wide type cell line SK-BR-3 were purchased from Cobioer Biotech (cat. no CBP60397, CBP60386, CBP60383 and CBP60413 respectively). The CellTiter-Glo Direct Cell Proliferation Assay Kit was purchased from Prornega (cat. No. G7573)
For cell proliferation assay in each cell line: • a. Prepare complete medium (R PMI 1640, DMEM or McCoys): Add FBS and appropriate additives according to the information sheet provided by the vendor. Mix gently. • b. Prepare single cell suspension and count the cell numbers and adjust cells to appropriate density. • c. Add 80 μL of cell suspension to 96-well opaque-walled clear bottom plates according to the planned plate layout and place the plates in the CO2 incubator overnight. • d. Prepare intermediate plate: 10 μl of diluted test compounds or staurosporine solution (200×) is added to a 96 deep well plate. Then 390 μl of culture medium without FBS is added to the respective wells. • e. Transfer 20 μL of the solutions from the above intermediate plate to the wells of the plate prepared containing 80 μL of the culture medium and cells. The total dilution is 200 folds. • f. The cells were then incubated at 5% CO2, 37° C. for 72 hours. • g. Equilibrate the plate and its contents to room temperature for approximately 30 minutes. • h. Add 100 μL of CellTiter-Glo reagent to the assay plate • i. Mix contents for 10 minutes on an orbital shaker to induce cell lysis. • j. Allow the plate to incubate at room temperature for 10 minutes to stabilize luminescent signal, • k. Paste the clear bottom with white back seal and record luminescence with Varioskan LUX plate reader.
Inhibition % and IC50 value were calculated by the formula described below: […]

[2] = test system: PI3Kα wide type cell line SK-BR-3; assay: Cell Proliferation IC50 Assay (CellTiter-Glo), SK-BR-3; conditions: SK-BR-3 (PI3Kα wild type), 72 hours, CellTiter-Glo, read-out: IC50 (μM) SK-BR-3
Procedure, shortened: (§1)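 Read-out was CellTiter-Glo luminescence after 72 h of compound exposure at 37 °C, 5% CO2. Cells had been plated overnight in complete medium before the compound was added at a 200-fold final dilution. IC50 was derived from percent inhibition.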

[3] = test system: PI3Kα H1047R mutation cell line T-47D; assay: Cell Proliferation IC50 Assay (CellTiter-Glo), T-47D; conditions: T47D (H1047R), 72 hours, CellTiter-Glo, read-out: IC50 (μM) T47D
Procedure, shortened: as §1

Row | Structure (SMILES) | IC50 ([1]; Homo sapiens) [µM] | IC50 ([2]; Homo sapiens) [µM] | IC50 ([3]; Homo sapiens, T47D, 72 h) [µM] | IC50 [1] [µM] | IC50 [2] [µM] | IC50 [3] [µM]
1 | Cc1cc([C@@H](C)Nc2ccccc2C(=O)O)c2oc(-c3ccc4c(c3)CN(C)C4=O)c(C)c(=O)c2c1 (single isomer, unassigned) [Example 20B] | 0.07 | > 10 | 0.048 | – | – | –
2 | C[C@H](Nc1ccccc1C(=O)O)c1cc(Cl)cc2c(=O)cc(-c3ccc4nn(C)cc4c3)oc12 (single isomer, unassigned) [Example 98A] | – | – | – | 0.09 | > 10 | 0.038
3 | CC(=O)N1CCN(c2ccc(-c3oc4c([C@H](C)Nc5ccccc5C(=O)O)cc(C)cc4c(=O)c3C)cc2)CC1 (single isomer, unassigned) [Example 123B] | > 10 | > 10 | > 10 | – | – | –
4 | Cc1cc(C(C)Nc2ccccc2C(=O)O)c2oc(-c3ccc4c(c3)OCO4)cc(=O)c2c1 (centres unmarked) [Example 4, 2-((1-(2-(benzo[d][1,3]dioxol-5-yl)-6-methyl-4-oxo-4H-chromen-8-yl)ethyl)amino)benzoic acid] | 0.75 | > 10 | 0.56 | – | – | –
5 | Cc1cc(C(C)Nc2ccccc2C(=O)O)c2oc(-c3cnn(C)c3)cc(=O)c2c1 (centres unmarked) [Example 10, 2-((1-(6-methyl-2-(1-methyl-1H-pyrazol-4-yl)-4-oxo-4H-chromen-8-yl)ethyl)amino)benzoic acid] | 2.44 | > 10 | 0.86 | – | – | –
6 | Cc1cc(C(C)Nc2ccccc2C(=O)O)c2oc(C3CCN(C(=O)OC(C)(C)C)CC3)cc(=O)c2c1 (centres unmarked) [Example 13, 2-((1-(2-(1-(tert-butoxycarbonyl)piperidin-4-yl)-6-methyl-4-oxo-4H-chromen-8-yl)ethyl)amino)benzoic acid] | 2.29 | > 10 | 1.33 | – | – | –
7 | Cc1cc(C(C)Nc2ccccc2C(=O)O)c2oc(C3=CCN(C(=O)OC(C)(C)C)CC3)cc(=O)c2c1 (centres unmarked) [Example 14, 2-((1-(2-(1-(tert-butoxycarbonyl)-1,2,3,6-tetrahydropyridin-4-yl)-6-methyl-4-oxo-4H-chromen-8-yl)ethyl)amino)benzoic acid] | 1.27 | > 10 | 1 | – | – | –
8 | Cc1cc(C(C)Nc2ccccc2C(=O)O)c2oc(-c3ccc4c(c3)CN(C)C4=O)c(C)c(=O)c2c1 (centres unmarked) [Example 20, 2-((1-(3,6-dimethyl-2-(2-methyl-1-oxoisoindolin-5-yl)-4-oxo-4H-chromen-8-yl)ethyl)amino)benzoic acid] | 0.18 | > 10 | 0.12 | – | – | –
9 | Cc1cc(C(C)Nc2ccccc2C(=O)O)c2oc(-c3ccc(S(C)(=O)=O)cc3)c(C)c(=O)c2c1 (centres unmarked) [Example 127, 2-((1-(3,6-dimethyl-2-(4-(methylsulfonyl)phenyl)-4-oxo-4H-chromen-8-yl)ethyl)amino)benzoic acid] | > 10 | > 10 | – | – | – | –
10 | Cc1cc(C(C)Nc2ccccc2C(=O)O)c2oc(-c3ccc(CN4CCOCC4)cc3)c(C)c(=O)c2c1 (centres unmarked) [Example 128, 2-((1-(3,6-dimethyl-2-(4-(morpholinomethyl)phenyl)-4-oxo-4H-chromen-8-yl)ethyl)amino)benzoic acid] | 0.16 | > 10 | – | – | – | –
11 | Cc1cc(C(C)Nc2ccccc2C(=O)O)c2oc(-c3ccc(C(=O)N4CCOCC4)cc3)c(C)c(=O)c2c1 (centres unmarked) [Example 129, 2-((1-(3,6-dimethyl-2-(4-(morpholine-4-carbonyl)phenyl)-4-oxo-4H-chromen-8-yl)ethyl)amino)benzoic acid] | 0.26 | > 10 | – | – | – | –
12 | Cc1cc(C(C)Nc2ccccc2C(=O)O)c2oc(-c3ccc(N4CCS(=O)(=O)CC4)cc3)c(C)c(=O)c2c1 (centres unmarked) [Example 132, 2-((1-(2-(4-(1,1-dioxidothiomorpholino)phenyl)-3,6-dimethyl-4-oxo-4H-chromen-8-yl)ethyl)amino)benzoic acid] | 0.27 | > 10 | – | – | – | –
13 | Cc1cc([C@@H](C)Nc2ccccc2C(=O)O)c2oc(-c3ccnc(N4CCOCC4)c3)c(C)c(=O)c2c1 [Example 133, (R)-2-((1-(3,6-dimethyl-2-(2-morpholinopyridin-4-yl)-4-oxo-411-chromen-8-yl)ethyl)amino)benzoic acid] | 1.18 | > 10 | – | – | – | –

Now from value to molecule, other results behind:

Row | IC50 ([1]; Homo sapiens) [µM] | IC50 ([2]; Homo sapiens) [µM] | IC50 ([3]; Homo sapiens, T47D, 72 h) [µM] | Structure (SMILES) | IC50 [1] [µM] | IC50 [2] [µM] | IC50 [3] [µM]
14 | > 10 | > 10 | > 10 | Cc1cc([C@H](C)Nc2ccccc2C(=O)O)c2oc(-c3ccc4c(c3)CN(C)C4=O)c(C)c(=O)c2c1 (single isomer, unassigned) [Example 20A] | – | – | –
15 | 0.12 | > 10 | 0.09 | Cc1cc([C@@H](C)Nc2ccccc2C(=O)O)c2oc(-c3ccc(N4CCOCC4)cc3)c(C)c(=O)c2c1 (single isomer, unassigned) [Example 53A] | – | – | –
16 | 0.7 | > 10 | 0.33 | Cc1cc(C(C)Nc2ccccc2C(=O)O)c2oc(-c3ccccc3)cc(=O)c2c1 (centres unmarked) [Example 1, 2-((1-(6-methyl-4-oxo-2-phenyl-4H-chromen-8-yl)ethyl)amino)benzoic acid] | – | – | –
17 | 0.39 | > 10 | 0.16 | Cc1ccc(-c2cc(=O)c3cc(C)cc(C(C)Nc4ccccc4C(=O)O)c3o2)cc1 (centres unmarked) [Example 2, 2-((1-(6-methyl-4-oxo-2-(p-tolyl)-4H-chromen-8-yl)ethyl)amino)benzoic acid] | – | – | –
18 | 0.56 | > 10 | 0.75 | Cc1cc(C(C)Nc2ccccc2C(=O)O)c2oc(-c3ccc(Cl)cc3)cc(=O)c2c1 (centres unmarked) [Example 3, 2-((1-(2-(4-chlorophenyl)-6-methyl-4-oxo-4H-chromen-8-yl)ethyl)amino)benzoic acid] | – | – | –
19 | 0.29 | > 10 | 0.23 | Cc1cc(C(C)Nc2ccccc2C(=O)O)c2oc(-c3ccc4c(c3)CN(C)C4=O)cc(=O)c2c1 (centres unmarked) [Example 6, 2-((1-(6-methyl-2-(2-methyl-1-oxoisoindolin-5-yl)-4-oxo-4H-chromen-8-yl)ethyl)amino)benzoic acid] | – | – | –
20 | 2.49 | > 10 | 1.98 | Cc1cc(C(C)Nc2ccccc2C(=O)O)c2oc(-c3cnn(CC(C)(C)O)c3)cc(=O)c2c1 (centres unmarked) [Example 11, 2-((1-(2-(1-(2-hydroxy-2-methylpropyl)-1H-pyrazol-4-yl)-6-methyl-4-oxo-4H-chromen-8-yl)ethyl)amino)benzoic acid] | – | – | –
21 | > 10 | > 10 | > 10 | Cc1cc(C(C)Nc2ccccc2C(=O)O)c2oc(C3CCNCC3)cc(=O)c2c1 (centres unmarked) [Example 15, 2-((1-(6-methyl-4-oxo-2-(piperidin-4-yl)-4H-chromen-8-yl)ethyl)amino)benzoic acid] | – | – | –
22 | 0.77 | > 10 | 0.31 | Cc1cc(C(C)Nc2ccccc2C(=O)O)c2oc(C3CCN(c4ccccc4)CC3)cc(=O)c2c1 (centres unmarked) [Example 18, 2-((1-(6-methyl-4-oxo-2-(1-phenylpiperidin-4-yl)-4H-chromen-8-yl)ethyl)amino)benzoic acid] | – | – | –
23 | 1.39 | > 10 | 0.35 | Cc1cc(C(C)Nc2ccccc2C(=O)O)c2oc(C3=CCN(c4ccccc4)CC3)cc(=O)c2c1 (centres unmarked) [Example 19, 2-((1-(6-methyl-4-oxo-2-(1-phenyl-1,2,3,6-tetrahydropyridin-4-yl)-4H-chromen-8-yl)ethyl)amino)benzoic acid] | – | – | –
24 | 0.63 | 5.07 | 0.72 | Cc1cc(C(C)Nc2ccc(Cl)nc2C(=O)O)c2oc(-c3ccc4c(c3)CN(C)C4=O)c(C)c(=O)c2c1 (centres unmarked) [Example 22, 6-chloro-3-((1-(3,6-dimethyl-2-(2-methyl-1-oxoisoindolin-5-yl)-4-oxo-4H-chromen-8-yl)ethyl)amino)picolinic acid] | – | – | –
25 | > 10 | > 10 | – | Cc1cc(C(C)Nc2ccccc2C(=O)O)c2oc(C3CCC(c4ccccc4)CC3)c(C)c(=O)c2c1 (centres unmarked) [Example 130, 2-((1-(3,6-dimethyl-4-oxo-2-(4-phenylcyclohexyl)-411-chromen-8-yl)ethyl)amino)benzoic acid] | – | – | –
26 | 0.56 | > 10 | – | Cc1cc([C@@H](C)Nc2ccccc2C(=O)O)c2oc(-c3ccnc(C(=O)N(C)C)c3)c(C)c(=O)c2c1 [Example 134, (R)-2-((1-(2-(2-(dimethylcarbamoyl)pyridin-4-yl)-3,6-dimethyl-4-oxo-4H-chromen-8-yl)ethyl)amino)benzoic acid] | – | – | –
